The results in this text go back to PubChem BioAssay AID292 (DTP/NCI, 2004).

Where “and” joins values, the source holds several entries; their conditions need not be identical. Equal entries are not always repeated. Inconclusive results and toxic doses are left out.

This test relates to B6C3F1 mice, ip Sarcoma M5076, median survival T/C. Put plainly: NCI In Vivo Anticancer Drug Screen. Data for tumor model Sarcoma M5076 (intraperitoneal) in B6C3F1 mice. As to conditions: endpoint: median survival time, higher = longer survival. Put shortly: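 Transplantable tumour in mice; compound-treated vs vehicle-treated groups. Read-out: survival. Value = treated/control ratio.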

Where [1] appears, read: dose: 50.0 mg/kg/injection, schedule: Q04DX004 (ip), vehicle: Klucel (hydroxypropylcellulose) (HPC).
Setting [2] is: dose: 100.0 mg/kg/injection, schedule: Q04DX004 (ip), vehicle: Klucel (hydroxypropylcellulose) (HPC).
Setting [3] is: dose: 200.0 mg/kg/injection, schedule: Q04DX004 (ip), vehicle: Klucel (hydroxypropylcellulose) (HPC).
Where [4] appears, read: dose: 50.0 mg/kg/injection, schedule: Q04DX004 (ip), vehicle: suspension in saline.
Setting [5] is: dose: 400.0 mg/kg/injection, schedule: Q04DX004 (ip), vehicle: suspension in saline.
Where [6] appears, read: dose: 50.0 mg/kg/injection, schedule: Q04DX004 (ip), vehicle: saline with Tween-80.
Setting [7] is: dose: 400.0 mg/kg/injection, schedule: Q04DX004 (ip), vehicle: saline with Tween-80.
Where [8] appears, read: dose: 37.5 mg/kg/injection, schedule: Q04DX004 (ip), vehicle: saline with Tween-80.
[9] abbreviates: dose: 75.0 mg/kg/injection, schedule: Q04DX004 (ip), vehicle: saline with Tween-80.
Where [10] appears, read: dose: 50.0 mg/kg/injection, schedule: Q04DX004 (ip), vehicle: saline.
Where [11] appears, read: dose: 100.0 mg/kg/injection, schedule: Q04DX004 (ip), vehicle: saline.
Where [12] appears, read: dose: 200.0 mg/kg/injection, schedule: Q04DX004 (ip), vehicle: saline.

For `Cc1nc(N)nc(N)c1N1CCN(c2ccc(C(=O)NC(C(=O)O)C(=O)O)cc2)CC1`, the T/C (dose: 3.75 mg/kg/injection, schedule: Q04DX004 (ip), vehicle: Klucel + Tween-80) was 104 % of control; the T/C (dose: 7.5 mg/kg/injection, schedule: Q04DX004 (ip), vehicle: Klucel + Tween-80) was 106 % of control; the T/C (dose: 15.0 mg/kg/injection, schedule: Q04DX004 (ip), vehicle: Klucel + Tween-80) is 103 % of control; the T/C (dose: 30.0 mg/kg/injection, schedule: Q04DX004 (ip), vehicle: Klucel + Tween-80) is 113 % of control; the T/C (dose: 60.0 mg/kg/injection, schedule: Q04DX004 (ip), vehicle: Klucel + Tween-80) is 121 % of control.

Consider `N#CC1C(=O)NC(=O)C(C#N)C1c1cccc(O)c1` (centres undefined), for which the T/C is 95 % of control under setting [1]; 102 % of control under setting [2]; 99 % of control under setting [3]; 95 % of control (dose: 400.0 mg/kg/injection, schedule: Q04DX004 (ip), vehicle: Klucel (hydroxypropylcellulose) (HPC)); 109 % of control (dose: 800.0 mg/kg/injection, schedule: Q04DX004 (ip), vehicle: Klucel (hydroxypropylcellulose) (HPC)).

With `c1nnc(NCNc2nncs2)s1`, the T/C is, setting by setting: (dose: 25.0 mg/kg/injection, schedule: Q04DX004 (ip), vehicle: suspension in saline) 113 % of control; under setting [4], 122 % of control; (dose: 144.0 mg/kg/injection, schedule: Q04DX004 (ip), vehicle: suspension in saline) 154 % of control; (dose: 200.0 mg/kg/injection, schedule: Q04DX004 (ip), vehicle: suspension in saline) 123 % of control; (dose: 240.0 mg/kg/injection, schedule: Q04DX004 (ip), vehicle: suspension in saline) 164 % of control; under setting [5], 168 % of control and 177 % of control.

In the case of `COCCCNC1=C(C#N)C(=O)NC2(CCCC2)S1`, the T/C by setting is: under setting [6], 97 % of control; (dose: 100.0 mg/kg/injection, schedule: Q04DX004 (ip), vehicle: saline with Tween-80) 97 % of control; (dose: 200.0 mg/kg/injection, schedule: Q04DX004 (ip), vehicle: saline with Tween-80) 97 % of control; under setting [7], 90 % of control.

In the case of `CCOC(=O)N(C)N=NC`, the T/C reads like this: (dose: 1.3 mg/kg/injection, schedule: Q04DX004 (ip), vehicle: saline) 110 % of control; (dose: 2.16 mg/kg/injection, schedule: Q04DX004 (ip), vehicle: saline) 119 % of control; (dose: 3.6 mg/kg/injection, schedule: Q04DX004 (ip), vehicle: saline) 122 % of control; (dose: 10.0 mg/kg/injection, schedule: Q04DX004 (ip), vehicle: saline) 155 % of control; (dose: 30.0 mg/kg/injection, schedule: Q04DX004 (ip), vehicle: saline) 158 % of control; (dose: 60.0 mg/kg/injection, schedule: Q04DX004 (ip), vehicle: saline) 168 % of control.

Turning to `CCOP1(OCC)(SSC)OC(=O)C(C)S1` (centres undefined), the T/C is 92 % of control (dose: 18.75 mg/kg/injection, schedule: Q04DX004 (ip), vehicle: saline with Tween-80); 88 % of control under setting [8]; 98 % of control under setting [9].

As for `CCN(CC)CC(=O)O[C@]1(CC)C(=O)OCc2c1cc1n(c2=O)Cc2cc3ccccc3nc2-1`, the T/C was 106 % of control and 110 % of control (dose: 2.0 mg/kg/injection, schedule: Q04DX004 (ip), vehicle: water); 107 % of control and 108 % of control (dose: 4.0 mg/kg/injection, schedule: Q04DX004 (ip), vehicle: water); 120 % of control and 124 % of control (dose: 8.0 mg/kg/injection, schedule: Q04DX004 (ip), vehicle: water).

Take `O=C(O)[C@H](Cc1ccccc1)N1C(=O)c2ccccc2C1=O`: the T/C by setting is: (dose: 62.5 mg/kg/injection, schedule: Q04DX004 (ip), vehicle: DMSO) 92 % of control; (dose: 125.0 mg/kg/injection, schedule: Q04DX004 (ip), vehicle: DMSO) 110 % of control; (dose: 250.0 mg/kg/injection, schedule: Q04DX004 (ip), vehicle: DMSO) 100 % of control.

`S=c1sc(-c2ccc(Cl)cc2)nn1CSc1nc2ccccc2[nH]1`: the T/C was 105 % of control under setting [8]; 98 % of control under setting [9]; 96 % of control (dose: 150.0 mg/kg/injection, schedule: Q04DX004 (ip), vehicle: saline with Tween-80); 95 % of control (dose: 300.0 mg/kg/injection, schedule: Q04DX004 (ip), vehicle: saline with Tween-80).

Consider `C/C(=N\Nc1cc(C)nc2ccc(C)cc12)c1cn(C)n(-c2ccccc2)c1=O`, for which, under “dose: 31.25 mg/kg/injection, schedule: Q04DX004 (ip), vehicle: Klucel (hydroxypropylcellulose) (HPC)”, the T/C is 86 % of control.

Turning to `COC1CC(C)C(OC)c2cc(O)cc(c2O)NC(=O)/C(C)=C/C=C\C(C)C(OC(N)=O)/C(C)=C\C(C)C1OC` (centres undefined), the T/C reads like this: (dose: 0.63 mg/kg/injection, schedule: Q01DX009 (ip), vehicle: saline + alcohol) 115 % of control; (dose: 1.25 mg/kg/injection, schedule: Q01DX009 (ip), vehicle: saline + alcohol) 111 % of control; (dose: 1.8 mg/kg/injection, schedule: Q01DX009 (ip), vehicle: saline + alcohol) 122 % of control; (dose: 2.5 mg/kg/injection, schedule: Q01DX009 (ip), vehicle: saline + alcohol) 107 % of control.

For the compound `[N-]=[N+]=CC(=O)CCC(NC(=O)OCc1ccccc1)C(=O)OCc1ccccc1` (centres undefined), the T/C (dose: 25.0 mg/kg/injection, schedule: Q04DX004 (ip), vehicle: Klucel (hydroxypropylcellulose) (HPC)) is 113 % of control; the T/C under setting [1] is 115 % of control; the T/C under setting [2] was 121 % of control; the T/C under setting [3] is 121 % of control.

With `N=C(N)Sc1ccccn1`, the T/C (dose: 62.5 mg/kg/injection, schedule: Q04DX004 (ip), vehicle: saline) is 97 % of control; the T/C (dose: 125.0 mg/kg/injection, schedule: Q04DX004 (ip), vehicle: saline) was 101 % of control; the T/C (dose: 250.0 mg/kg/injection, schedule: Q04DX004 (ip), vehicle: saline) is 90 % of control.

On to `CN1C2CCC1C(Br)C(=O)C2` (centres undefined), for which the T/C is, setting by setting: under setting [10], 101 % of control; under setting [11], 104 % of control; under setting [12], 103 % of control.

Take `CO[C@@]12[C@H](COC(N)=O)C3=C(C(=O)C(C)=C(N)C3=O)N1C[C@@H]1N[C@@H]12`: the T/C (dose: 0.25 mg/kg/injection, schedule: Q04DX004 (ip), vehicle: saline) was 106 % of control; the T/C (dose: 0.5 mg/kg/injection, schedule: Q04DX004 (ip), vehicle: saline) is 120 % of control and 121 % of control.

In the case of `O=S(O)Cc1ccccc1CSSSCc1ccccc1CS(=O)O`, the T/C under setting [10] is 105 % of control; the T/C under setting [4] is 111 % of control; the T/C under setting [11] is 103 % of control; the T/C (dose: 100.0 mg/kg/injection, schedule: Q04DX004 (ip), vehicle: suspension in saline) is 95 % of control; the T/C under setting [12] was 94 % of control; the T/C (dose: 400.0 mg/kg/injection, schedule: Q04DX004 (ip), vehicle: saline) was 99 % of control. In addition, the T/C reads like this: under setting [5], 91 % of control; (dose: 800.0 mg/kg/injection, schedule: Q04DX004 (ip), vehicle: saline) 95 % of control; (dose: 800.0 mg/kg/injection, schedule: Q04DX004 (ip), vehicle: suspension in saline) 91 % of control.

For the compound `Oc1c(Cl)cc(Cl)cc1C1Nc2ccccc2-n2cccc21` (centres undefined), the T/C runs as follows: (dose: 12.5 mg/kg/injection, schedule: Q04DX004 (ip), vehicle: saline with Tween-80) 90 % of control; (dose: 25.0 mg/kg/injection, schedule: Q04DX004 (ip), vehicle: saline with Tween-80) 88 % of control; under setting [6], 86 % of control and 92 % of control; under setting [7], 87 % of control; (dose: 800.0 mg/kg/injection, schedule: Q04DX004 (ip), vehicle: saline with Tween-80) 91 % of control.

In the case of `CO[C@@H]1C2=CC=CC=C[C@H]2n2c(=O)n(C)c(=O)n21`, the T/C by setting is: (dose: 37.5 mg/kg/injection, schedule: Q04DX004 (ip), vehicle: other) 104 % of control; (dose: 75.0 mg/kg/injection, schedule: Q04DX004 (ip), vehicle: other) 100 % of control; (dose: 150.0 mg/kg/injection, schedule: Q04DX004 (ip), vehicle: other) 100 % of control; (dose: 300.0 mg/kg/injection, schedule: Q04DX004 (ip), vehicle: other) 104 % of control.
